What was measured:
[1] = Test method 2: spray on rice seedlings, resistant brown planthopper larvae released; type: in vivo; conditions: Nilaparvata lugens, Comparative Test Example 2, 500 ppm
Description: Test compounds are made to a formulation according to a similar method to that described in the Formulation example 5, and thereto is added water containing 0.03 v/v % of Shindain (registered trademark) to prepare a diluted solution containing a prescribed concentration of the test compound.
Rice (Oryza sativa) seedling (on the developmental stage of the second true leaf) is planted in a container, and the diluted solutions are sprayed into the seedling in a ratio of 10 mL/seedling. Thereafter, 20 of 3rd instar larvae of resistant brown planthoppers (Nilaparvata lugens) (lineages collected in Kagoshima prefecture in 2018, screened with imidacloprid) are released onto the rice leaves. After 6 days, the number of the surviving insects is examined and the mortality is calculated by the following equation.
Mortality (%)={1−the number of the surviving insects/20}×100

[2] = test system: resistant cotton aphids (Aphis gossypii) (lineages collected in Miyazaki prefecture in 2012, screened with imidacloprid); experiment: Test method 1: foliar spray on cucumber seedlings infested with resistant cotton aphids; type: in vivo; conditions: Comparative Test Example 1, 500 ppm
Description: Test compounds are made to a formulation according to a similar method to that described in the Formulation example 1, and thereto is added water containing 0.03 v/v % of Shindain (registered trademark) to prepare a diluted solution containing a prescribed concentration of the test compound.
Cucumber (cucumber sativus) seedling (on the developmental stage of the second true leaf) is planted in a cup, and approximately 30 resistant cotton aphids (Aphis gossypii) (all stages of life) (lineages collected in Miyazaki prefecture in 2012, screened with imidacloprid). After one day, the diluted solutions are sprayed into the seedling at a ratio of 10 mL/seedling. After 5 days, the number of the surviving insects is examined and the controlling value is calculated by the following equation.
Controlling value (%)−{1−(Cb×Tai)/(Cai×Tb)}×100
wherein the symbols in the equation represent the following descriptions. • Cb: Number of the test insects in untreated group; • Cai: Number of the surviving insects at the time of the examination in untreated group; • Tb: Number of the test insects in treated group; • Tai: Number of the surviving insects at the time of the examination in treated group;
Here the “untreated group” represents a group where a similar treatment procedure to that of treated group except not using the test compound is done.

[3] = Test method 5: spray on tomato seedlings carrying larvae of resistant tobacco whiteflies; conditions: Bemisia tabaci

Measured: mortality at 500 ppm

N#Cc1ccc(-c2nc(-c3c(Cl)cncc3Cl)no2)cc1 [Comparative compound 1]
10%: all assays above

Reference: patent publication US20240298644A1, “HETEROCYCLIC COMPOUND AND RESISTANT HARMFUL ARTHROPOD- CONTROLLING METHOD FOR COMPOSITION CONTAINING SAME” (SUMITOMO CHEMICAL COMPANY, LIMITED, priority 2021, published 2024)
